The supplement of paper PMC13380429

Experiments:
Conditions in all cases: 72 h
[1] = tested on: Calu-3; test: cell viability relative to DMSO; higher = less toxic
[2] = tested on: Vero E6; test: as above
[3] = tested on: HepG2; test: as above
[4] = tested on: Caco-2; test: as above
[5] = tested on: U2OS; test: as above
[6] = tested on: Calu-3; test: relative viability EC50 (midpoint between 100% and the lowest measured viability); higher = less toxic
[7] = tested on: Vero E6; test: as above
[8] = tested on: HepG2; test: as above
[9] = tested on: Caco-2; test: as above
[10] = tested on: U2OS; test: as above
[11] = tested on: Calu-3; test: drug sensitivity score (DSS) for viability; higher = more toxic; extreme values may be limits of the assay
[12] = tested on: Vero E6; test: as above
[13] = tested on: HepG2; test: as above
[14] = tested on: Caco-2; test: as above
[15] = tested on: U2OS; test: as above

Structure (SMILES) | cell viability ([1]; 1 nM) [%] | cell viability ([1]; 10 nM) [%] | cell viability ([1]; 100 nM) [%] | cell viability ([1]; 1000 nM) [%] | cell viability ([1]; 10000 nM) [%] | cell viability ([2]; 1 nM) [%] | cell viability ([2]; 10 nM) [%] | cell viability ([2]; 100 nM) [%] | cell viability ([2]; 1000 nM) [%] | cell viability ([2]; 10000 nM) [%] | cell viability ([3]; 1 nM) [%] | cell viability ([3]; 10 nM) [%] | cell viability ([3]; 100 nM) [%] | cell viability ([3]; 1000 nM) [%] | cell viability ([3]; 10000 nM) [%] | cell viability ([4]; 1 nM) [%] | cell viability ([4]; 10 nM) [%] | cell viability ([4]; 100 nM) [%] | cell viability ([4]; 1000 nM) [%] | cell viability ([4]; 10000 nM) [%] | cell viability ([5]; 1 nM) [%] | cell viability ([5]; 10 nM) [%] | cell viability ([5]; 100 nM) [%] | cell viability ([5]; 1000 nM) [%] | cell viability ([5]; 10000 nM) [%] | relative viability EC50 [6] [nM] | relative viability EC50 [7] [nM] | relative viability EC50 [8] [nM] | relative viability EC50 [9] [nM] | relative viability EC50 [10] [nM] | drug sensitivity score [11] | drug sensitivity score [12] | drug sensitivity score [13] | drug sensitivity score [14] | drug sensitivity score [15]
CC(C)(C)c1cc(C=C(C#N)C#N)cc(C(C)(C)C)c1O [tyrphostin-A9] | 97.4 | 96.3 | 99 | 92.8 | 44.1 | 100 | 106 | 97.8 | 97.2 | 17.5 | 104 | 101 | 98.7 | 74.3 | 8.9 | 96.5 | 98.3 | 95.8 | 70.1 | 20.5 | 106 | 97.9 | 100 | 90.6 | 22.4 | 2120 | 2910 | 1450 | 1290 | 2180 | 4.2 | 5 | 8.9 | 8.1 | 5.9
CCCCC(=O)OCC(=O)[C@]1(O)Cc2c(O)c3c(c(O)c2[C@@H](O[C@H]2C[C@H](NC(=O)C(F)(F)F)[C@H](O)[C@H](C)O2)C1)C(=O)c1c(OC)cccc1C3=O [valrubicin] | 90.7 | 95.4 | 89.7 | 60.9 | 26.7 | 98.6 | 102 | 107 | 92.3 | 29.2 | 95.7 | 101 | 77.9 | 33.6 | 0.6 | 95.9 | 96.8 | 92.5 | 72.3 | 23.3 | 105 | 96.7 | 103 | 70.3 | 6.1 | 769 | 2280 | 430 | 1360 | 1360 | 9 | 5.2 | 15.2 | 7.5 | 9.5
CCCCC(=O)N(Cc1ccc(-c2ccccc2-c2nnn[nH]2)cc1)[C@H](C(=O)O)C(C)C [valsartan] | 103 | 108 | 95.6 | 102 | 90.9 | 101 | 99.8 | 98.1 | 100 | 99.9 | 107 | 101 | 93.4 | 97.3 | 103 | 92 | 94.3 | 88.6 | 102 | 96 | 101 | 98.8 | 96.9 | 97.2 | 101 | > 10000 | > 10000 | > 10000 | > 10000 | > 10000 | 0 | 0 | 0 | 0 | 0
COc1ccc(N(C)c2nc(C)nc3ccccc23)cc1 [verubulin] | 94.9 | 77.2 | 46.6 | 42.3 | 40.3 | 93 | 32.6 | 21.4 | 23.9 | 27.9 | 108 | 52.4 | 34.3 | 36.3 | 41.4 | 103 | 76.2 | 40.5 | 38.3 | 34.6 | 102 | 72.6 | 17.3 | 18 | 18.3 | 15.1 | 3.7 | 6.9 | 15.6 | 13.3 | 20.2 | 33.5 | 26.2 | 22.4 | 29.6
